This is an account of results in patent US6268391A, “Benzylidene-1,3-dihydro-indol-2-one derivatives a receptor tyrosine kinase inhibitors, particularly of Raf kinases” (Glaxo Wellcome Inc., priority 1997, dated 2001).

The test has as its target T1, Human cRaf1 (Homo sapiens, UniProt P04049).
T1 construct: poly-histidine (C); made in house
Description: Raf kinase assay (cRaf1 assay / Raf/MEK cascade assay). It counts as biochemical.

The mark [1] stands for this setting: Table 3, read-out: Raf Kinase activity.

pIC50: −log10 of the molar value. Where two headings read alike, the source gives them in different places.

T1 sequence (P04049 whole entry): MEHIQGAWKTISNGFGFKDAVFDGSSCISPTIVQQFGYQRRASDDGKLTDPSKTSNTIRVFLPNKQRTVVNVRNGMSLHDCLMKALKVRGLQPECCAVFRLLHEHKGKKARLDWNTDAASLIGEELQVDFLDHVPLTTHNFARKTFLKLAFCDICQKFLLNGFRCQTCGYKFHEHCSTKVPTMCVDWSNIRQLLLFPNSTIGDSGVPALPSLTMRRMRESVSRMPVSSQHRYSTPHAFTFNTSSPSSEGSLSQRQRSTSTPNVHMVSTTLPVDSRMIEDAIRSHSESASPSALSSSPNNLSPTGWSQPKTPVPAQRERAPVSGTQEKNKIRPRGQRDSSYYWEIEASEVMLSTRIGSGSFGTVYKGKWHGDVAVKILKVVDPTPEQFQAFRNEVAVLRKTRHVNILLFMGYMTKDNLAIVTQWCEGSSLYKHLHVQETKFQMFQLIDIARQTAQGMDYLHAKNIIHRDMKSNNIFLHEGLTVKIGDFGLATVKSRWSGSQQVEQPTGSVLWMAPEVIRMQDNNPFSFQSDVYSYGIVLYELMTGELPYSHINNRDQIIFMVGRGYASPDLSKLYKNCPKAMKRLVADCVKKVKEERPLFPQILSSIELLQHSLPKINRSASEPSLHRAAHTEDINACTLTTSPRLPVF

`CN1CCN(C(=O)Oc2c(Br)cc(C=C3C(=O)Nc4ccc(I)cc43)cc2Br)CC1` [Example 153, 2,6-Dibromo-4-[(5-iodo-2-oxo-1,2-dihydro-3H-indol-3-ylidene)methyl]phenyl 4-methyltetrahydro-1(2H)-pyrazinecarboxylate] gave a pIC50 of 4.00 to 5.00.
Regarding `CCN(CC)C(=O)Oc1c(Br)cc(C=C2C(=O)Nc3ccc(I)cc32)cc1Br` [Example 154, 2,6-Dibromo-4-[(5-iodo-2-oxo-1,2-dihydro-3H-indol-3-ylidene)methyl]phenyl N,N-diethylcarbamate], the pIC50 under setting [1] is 4.00 to 5.00.
The same measure, in the same setting: to `O=C1Nc2ccc(C(=O)O)cc2C1=Cc1cc(Br)c(O)c(Br)c1` [Example 156, 3-(3,5-Dibromo-4-hydroxy-benzylidene)-2-oxo-2,3-dihydro-1H-indol-5-carboxylic acid] belongs > 6.00.
Still for that read-out and setting: then `O=C1Nc2ccc(S(=O)(=O)N(CCO)CCO)cc2C1=Cc1cc(Br)c(O)c(Br)c1` [Example 157, 3-[(3,5-Dibromo-4-hydroxyphenyl)methylidene]-N,N-bis(2-hydroxyethyl)-2-oxo-5-indolinesulfonamide], with > 6.00; and `O=C1Nc2ccc(NC(=O)c3ccccc3)cc2C1=Cc1cc(Br)c(O)c(Br)c1` [Example 158, N-3-[(3,5-Dibromo-4-hydroxyphenyl)methylidene]-2-oxo-2,3-dihydro-1H-indol-5-ylbenzamide], with > 6.00; and `CC(=O)Nc1ccc2c(c1)C(=Cc1cc(Br)c(O)c(Br)c1)C(=O)N2` [Example 159], with > 6.00.
Same read-out and setting: then `O=C(CO)Nc1ccc2c(c1)C(=Cc1cc(Br)c(O)c(Br)c1)C(=O)N2` [Example 160, N-3-[(3,5-Dibromo-4-hydroxyphenyl)methylidene]-2-oxo-2,3-dihydro-1H-indol-5-yl-2-hydroxyacetamide], with > 6.00.
Consider `O=C1Nc2ccc(C(=O)NCCCc3ccccc3)cc2C1=Cc1cc(Br)c(O)c(Br)c1` [Example 161, 3-[(3,5-Dibromo-4-hydroxyphenyl)methylidene]-2-oxo-N-(3-phenylpropyl)-5-indolinecarboxamide], for which the pIC50 under setting [1] is > 6.00.
As for `O=C1Nc2ccc(C(=O)NCc3ccccc3)cc2C1=Cc1cc(Br)c(O)c(Br)c1` [Example 162, N-Benzyl-3-[(3,5-dibromo-4-hydroxyphenyl)methylidene]-2-oxo-5-indolinecarboxamide], the pIC50 under setting [1] was > 6.00.
On the same count and under the same terms, then `CN(C)c1ccc2c(c1)C(=Cc1cc(Br)c(O)c(Br)c1)C(=O)N2` [Example 163, 3-[(3,5-Dibromo-4-hydroxyphenyl)methylidene]-5-(dimethylamino)-1,3-dihydro-2H-indol-2-one], with > 6.00.
Still for that read-out and setting: then `CCN(CC)C(=O)Oc1c(Br)cc(C=C2C(=O)Nc3ccc(S(N)(=O)=O)cc32)cc1Br` [Example 164, 4-[5-(Aminosulfonyl)-2-oxo-1,2-dihydro-3H-indol-3-ylidene]methyl-2,6-dibromophenyl N,N-diethylcarbamate], with 5.00 to 6.00; and `Cc1ccc2c3c(ccc2n1)NC(=O)C3=Cc1cc(Br)c(O)c(Br)c1` [Example 165, 1-[(3,5-Dibromo-4-hydroxyphenyl)methylidene]-7-methyl-1,3-dihydro-2H-pyrrolo[3,2-f]quinolin-2-one], with > 6.00.
In the case of `Nc1ccc2c(c1)C(=Cc1cc(Br)c(O)c(Br)c1)C(=O)N2` [Example 166, 5-Amino-3-[(3,5-dibromo-4-hydroxyphenyl)methylidene]-1,3-dihydro-2H-indol-2-one], the pIC50 under setting [1] is > 6.00.
On the same count and under the same terms, to `CCN(CC)C(=O)Oc1c(Br)cc(C=C2C(=O)Nc3ccc(C(=O)c4ccccc4)cc32)cc1Br` [Example 167, 4-[(5-Benzoyl-2-oxo-1,2-dihydro-3H-indol-3-yildene)methyl]-2,6-dibromophenyl N,N-diethylcarbamate] belongs 4.00 to 5.00; to `CN(C)CCNC(=O)c1ccc2c(c1)C(=Cc1cc(Br)c(O)c(Br)c1)C(=O)N2` [Example 168, 3-[(3,5-Dibromo-4-hydroxyphenyl)methylidene]-N-(2-(dimethylamino)ethyl]-2-oxo-5-indolinecarboxamide], > 6.00; to `O=C1Nc2ccc(-c3cc(C(F)(F)F)cc(C(F)(F)F)c3)cc2C1=Cc1cc(Br)c(O)c(Br)c1` [Example 169, 5-[3,5-bis(Trifluoromethyl)phenyl]-3-[(3,5-dibromo-4-hydroxyphenyl)methylidene]-1,3-dihydro-2H-indol-2-one], > 6.00.
On the same count and under the same terms, then `O=C1Nc2ccc(-c3ccc(Cl)cc3Cl)cc2C1=Cc1cc(Br)c(O)c(Br)c1` [Example 171, 3-[(3,5-Dibromo-4-hydroxyphenyl)methylidene]-5-(2,4-dichlorophenyl)-1,3-dihydro-2H-indol-2-one], with > 6.00; and `O=C1Nc2ccc(C(=O)NCCO)cc2C1=Cc1cc(Br)c(O)c(Br)c1` [Example 172, 3-[(3,5-Dibromo-4-hydroxyphenyl)methylidene]-N-(2-hydroxyethyl)-2-oxo-5-indolinecarboxamide], with > 6.00; and `CN(C)c1nc(-c2ccc3c(c2)C(=Cc2cc(Br)c(O)c(Br)c2)C(=O)N3)cs1` [Example 173, 3-[(3,5-Dibromo-4-hydroxyphenyl)methylidene]-5-[2-(dimethylamino)-1,3-thiazol-4-yl]-1,3-dihydro-2H-indol-2-one], with > 6.00.
Still for that read-out and setting: then `CS(=O)(=O)c1ccc2c(c1)C(=Cc1cc(Br)c(O)c(Br)c1)C(=O)N2` [Example 174, 3-[(3,5-Dibromo-4-hydroxyphenyl)methylidene]-5-(methylsulfonyl)-1,3-dihydro-2H-indol-2-one], with > 6.00; and `NS(=O)(=O)c1ccc(-c2ccc3c(c2)C(=Cc2cc(Br)c(O)c(Br)c2)C(=O)N3)cc1` [Example 175, 4-3-[(3,5-Dibromo-4-hydroxyphenyl)methylidene]-2-oxo 2,3-dihydro-1H-indol-5-ylbenzenesulfonamide], with > 6.00.
On to `C=Cc1ccc2c(c1)NC(=O)C2=Cc1cc(Br)c(O)c(Br)c1` [Example 176, 3-[(3,5-Dibromo-4-hydroxyphenyl)methylidene]-6-vinyl-1,3-dihydro-2H-indol-2-one], for which the pIC50 under setting [1] was > 6.00.
On the same count and under the same terms, then `COC(=O)c1sccc1-c1ccc2c(c1)C(=Cc1cc(Br)c(O)c(Br)c1)C(=O)N2` [Example 177, Methyl 3-3-[(3,5 dibromo-4-hydroxyphenyl)methylidene]-2-oxo-2,3-dihydro-1H-indol-5-yl-2-thiophenecarboxylate], with > 6.00; and `N#Cc1ccccc1-c1ccc2c(c1)C(=Cc1cc(Br)c(O)c(Br)c1)C(=O)N2` [Example 178, 2-3-[(3,5 Dibromo-4-hydroxyphenyl)methylidene]-2-oxo-2,3-dihydro-1H-indol-5-ylbenzonitrile], with > 6.00.
On the same count and under the same terms, then `N#Cc1ccc2c(c1)NC(=O)C2=Cc1cc(Br)c(O)c(Br)c1` [Example 179, 3-[(3,5-Dibromo-4-hydroxyphenyl)methylidene]-2-oxo-6-indolinecarbonitrile], with > 6.00; and `CN(C)CCCNc1nc(-c2ccc3c(c2)C(=Cc2cc(Br)c(O)c(Br)c2)C(=O)N3)cs1` [Example 180, 3-[(3,5-Dibromo-4-hydroxyphenyl)methylidene]-5-(2-[3-(dimethylamino)propyl]amino-1,3-thiazol-4-yl)-1,3-dihydro-2H-indol-2-one], with > 6.00.
As to `O=C1Nc2ccc(C(=O)NCc3ccncc3)cc2C1=Cc1cc(Br)c(O)c(Br)c1` [Example 181, 3-[(3,5-dibromo-4-hydroxyphenyl)methylidene]-2-oxo-N-(4-pyridinylmethyl)-1,2-dihydro-3H-indole-5-carboxamide], under setting [1], the pIC50 is > 6.00.
